Patent publication US20130004581A1, “CONTROLLING UPTAKE BY CELLS” (Ramot at Tel-Aviv University Ltd., priority 2010, published 2013)

Experiments:
HaCaT cells = test: Proton induced uptake (PIU) in HaCaT cells, FACS; format: cell-based, human; details: for extent of PIU of dextran-FITC compared to normal cells: 25 μM added 10 minutes prior, pH 5.2 for 10 minutes, dextran-FITC 70 kDa; for effect of actin cytoskeleton modifier on rate of PIU of dextran-FITC: latrunculin-A 1 μM, cytochalasin-B 10 μM, wortmannin 1 μM, calyculin-A 50 nM, 15 minutes before, pH 5.25 10 minutes, 70 kD dextran-FITC 5 μM
Experimental: FIG. 6 is a chart showing PIU of molecules different by size and charge, in accordance with some embodiments of the invention. Hacat cultures were exposed to solutions of pH 5.2 or pH 7.4 for 5 minutes period, in the presence of different fluorescence molecules (All at 25 μM concentration). FACS analysis results (FL1, geometrical mean±SD) for the cell cultures exposed to pH 5.2 are presented as fold induction relative to results obtained for cells exposed to pH 7.4. This can be used, in some embodiments of the invention, to assess effect of molecule size and charge on uptake.
FIGS. 7A-7B are charts showing the comparison of PIU in adherent and suspended HaCaT cells, in accordance with some embodiments of the invention. For FIG. 7A, HaCaT cells were tested either at their adherent state, or following harvest at a suspended state. […] FACS analyses (FL1) in terms of geometrical mean±SD are presented as fold induction relative to the constitutive uptake at physiological pH 7.4. n=9 in 3 independent experiments. For FIG. 7B, HaCaT Cells were cultivated at low, medium or high cell density. […] The cultures were harvested and undergone FACS analyses (FL1) in terms of geometrical mean±SD and are presented as fold induction relative to the constitutive uptake of low density cultures. Statistical significance was tested against the confluent culture, n=9 in 3 independent experiments. In the charts, * indicates a t-test p<0.05; and ** indicates a t-test p<0.01. This can be used, in some embodiments of the invention, to assess effect of cell membrane rigidity and/or tissue structure on uptake.
FIGS. 12A-12B are a chart and images which show the relative change of PIU by modifiers of actin cytoskeleton organization, in accordance with some embodiments of the invention. […].

COS 5-7 cells [1] = test: Uptake after one minute of chemically induced low pH (HCl added to HBSS suspension), FACS; format: cell-based, African green monkey; details: 50 mM
Experimental: The following tables show a connection between pH and current. […] The values in the tables are shown as folds relative to the uptake in cells unexposed to any of the treatments. […] The results are expected to be substantially independent of cell type and molecule used, except for a cell-specific change and a molecule specific change.
Cells (COS 5-7) were harvested, re-suspended in DMEM (1 mg/ml glucose, 5% FCS), and incubated (37°, 5% CO2) as designated by the experiment. For uploading the cells with either H2DCF-DA (20 μM) or Bis-DHA (1 mM) incubation lasted 90 minutes. When no pre-treatments were required, the cells were kept in the DMEM for 30 minutes. Following incubation, the cells were centrifuged at 400g for 1 min, the solution aspirated, and cells re-suspended in HBSS exposure media.
Exposure of cells to pulse acidification was through the addition of HCl to the HBSS suspension for 60 seconds, terminated by the addition of a three fold larger volume of DMEM-H.
Cell suspensions were centrifuged (400g for one minute), their solutions aspirated and they were re-suspended with 0.5 ml DMEM-H supplemented with 10u/ml dextranase (Sigma-Aldrich) for 10 minutes at RT. Cells were centrifuged again; their solution aspirated and they were re-suspended with 0.2 ml DMEM-H. PI (25 μg/ml) as a label for permeabilized cells and tryphan blue (0.01% w/v) as a fluorescence quenching agent for extracellular FITC (36) were added to each sample shortly before analysis
Flow cytometry analysis was carried out by FACSort (Becton @ Dickson, San Jose, Calif.), employing a 488-nm argon laser excitation. The green fluorescence of FITC was measured via 530/30 nm filter, the red fluorescence of PI was detected via a 585/42 nm filter. […] Ten thousand cells were examined for each sample and data were collected in the list mode. The analysis of flow cytometry data was performed using WINMDI 2.9 software (Joe Trotter, The Scripps Research Institute). For each sample the geometrical mean was calculated without including PI stained cells. Cell intensity was determined as fold of induction relative to cells' constitutive uptake.
After one minute incubation, cell suspensions were immediately diluted with 3 fold larger volume of cold buffered DMEM to restore pH to a normal pH of 7.5.

COS 5-7 cells [2] = test: Uptake after one minute of electric pulse train (EPT) in three-compartment device, FACS; format: cell-based, African green monkey; details: in the presence of both 2 mM SAA and 1 mM DHA
Experimental: Exposure of cells to low-intensity trains of unipolar rectangular voltage pulses was carried in a three-compartment exposure set-up where the anode and cathode were connected to an electric pulse generator (Grass S44 Stimulator). The exposure set-up consisted of a rectangular chamber made from polystyrene, 15 mm long, 10 mm wide, with 0.5 cm^2 area platinum electrodes positioned on the extreme sides (see FIG. 15). The chamber is divided by two porous membranes (PolyEtherSulfon, 0.8 μm pores, 200 μm depth), into three distinct and equal compartments: anode, cathode and center ones. The electric field parameters applied were monitored on line by recording the voltage and the current (by means of a wide band current probe, Pearson) on an oscilloscope. Typically, a cell suspension (1*10^6 cells/ml) is exposed to a train of electric pulses consisting of unipolar rectangular pulses with duration of 180 μs, frequency of 500 Hz for the total time of exposure of one minute.
Flow cytometry analysis was carried out by FACSort (Becton @ Dickson, San Jose, Calif.), employing a 488-nm argon laser excitation. […] Ten thousand cells were examined for each sample and data were collected in the list mode. The analysis of flow cytometry data was performed using WINMDI 2.9 software (Joe Trotter, The Scripps Research Institute). For each sample the geometrical mean was calculated without including PI stained cells. Cell intensity was determined as fold of induction relative to cells' constitutive uptake.

COS 5-7 cells [3] = test: Intracellular oxidative stress (DCF fluorescence) after exposure to EPT, FACS; format: cell-based, African green monkey; details: EPT 20V/cm
Excerpt: FIG. 18 is a chart of intracellular oxidative stress in the presence of anti-oxidants in the extracellular and the intracellular compartments, in accordance with some embodiments of the invention. The intracellular oxidative stress measured by intracellular DCF fluorescent intensity following cell exposure to electric pulse train, analyzed by FACS (488/530 nm). Results are given as folds of geometrical mean±SD relative to the level of constitutive oxidative stress. Statistical t-test results: 2 mM SAA; p<0.05, 1 mM DHA; p<0.01.
Harvested cells were incubated with H2DCF-DA (20 μM for 90 minutes 5% CO2 at 37°). Following the loading process the cells were washed once with HBSS before exposure to EPT. H2DCF-DA is a non-fluorescent form of fluorescein, passively permeating into the cell where it is cleaved by cytosolic esterase to H2DCF. It gains its fluorescent properties when oxidized into DCF. DCF intensity was analyzed by FACS using the 530/30 nm channel.
The intracellular OS level was monitored by H2DCF, a non-fluorescent probe that is oxidized by radical hydroxyls into the fluorescent DCF form. Following the cells pre-loading with H2DCF, OS levels, as monitored by intracellular DCF fluorescence intensity, are elevated only in those cells suspended and exposed to EPT in the anode compartment (20V/cm, 200 mA/cm^2). […]

[4] = 2 mM added to medium prior to EPT (20V/cm, 200 mA/cm^2)
Experimental: In order to determine the EPT induced oxidative stress in the extracellular media, TMB was employed, a colorless solution that transforms into blue when oxidized. TMB was added to the media before exposure to EPT. […] Light absorbance was measured using Tecan GENios plate reader at 450 nm. […] In order to moot this possibility, OS was examined in the three-compartment device, monitored by the color conversion of TMB.

With O=C(CCc1ccc(O)cc1)c1c(O)cc(O)cc1O [Phloretin] the “extent of PIU of dextran-FITC compared to normal cells” value (HaCaT cells) was “higher”.

In the case of [Cl-].[Na+] [NaCl], the “change in uptake when HCl is replaced by the same concentration of salt (osmolarity control)” value (COS 5-7 cells [1]) is reported as “no change in uptake was observed”.

In the case of C/C1=C/C(=O)O[C@@H]2C[C@@H](CC[C@H](C)/C=C\C=C\CC1)O[C@@](O)([C@@H]1CSC(=O)N1)C2 [latrunculin-A], the “effect of actin cytoskeleton modifier on rate of PIU of dextran-FITC” value (from here on “effect of actin cytoskeleton modifier”) (HaCaT cells) is reported as “only small PIU enhancement”.

With COC[C@@H]([C@H](O)[C@H](O)C(=O)NCC[C@H](C)c1nc(/C=C/C[C@@H]2O[C@]3(C[C@@H](O)[C@@H]2C)O[C@H]([C@H](C[C@H](O)[C@H](C)[C@H](O)[C@H](C)/C=C(C)/C(C)=C/C=C/C(C)=C\C#N)OC)[C@H](OP(=O)(O)O)C3(C)C)co1)N(C)C [calyculin-A] the “effect of actin cytoskeleton modifier” value (HaCaT cells) was “relatively minute impact on PIU increase”.

With C=C1[C@@H](C)[C@H]2[C@H](Cc3ccccc3)NC(=O)[C@]23OC(=O)/C=C/[C@H](O)CCC[C@@H](C)C/C=C/[C@H]3[C@@H]1O [cytochalasin-B] the “effect of actin cytoskeleton modifier” value (HaCaT cells) was “doubled”.

With O=C1OC2C(O)COC23OC24OCC(O)C2OC(=O)C4(O)OC13O (stereo not drawn) [DHA, Bis-Dehydroascorbic acid] the “effect on EPT induced uptake of dextran-FITC” value (COS 5-7 cells [2]) was “only a minor decrease” and the “effect on EPT induced increase of DCF fluorescent intensity” value (COS 5-7 cells [3]; cells pre-loaded (1 mM, 90 minutes), 200 mA/cm^2) was “sufficient to abolish”.

With lucifer yellow the “extent of PIU compared with fluorescein and dextran” value (HaCaT cells; pH 5.2 vs pH 7.4, 5 minutes, 25 μM) was “lesser extent of PIU”.

For N#CC(C#N)=NNc1cccc(Cl)c1 [CCCP], the “extent of PIU of dextran-FITC compared to normal cells” value (HaCaT cells) was “higher”.

With O=C1O[C@H]([C@@H](O)CO)C(O)=C1O.[Na] [SAA, Sodium ascorbic acid] the “effect on EPT induced uptake of dextran-FITC” value (COS 5-7 cells [2]) was “only a minor decrease”, the “decline of intracellular OS (DCF fluorescence)” value (COS 5-7 cells [3]; 2 mM in external medium, 200 mA/cm^2, anode compartment) was 66% and the “effect on TMB oxidation during electric exposure” value [4] was “prevented its oxidation”.
